According to patent publication US5808109A, “Compounds that inhibit complement and/or suppress immune activity” (T Cell Sciences, Inc., priority 1995, dated 1998):
Where a name gives a salt, the structure may show the parent alone. Read-outs that look alike come from different tables or passages of the source.

Columns and labels:
human complement = assay: Inhibition of complement-mediated hemolysis, human serum, sensitized sheep erythrocytes; type: biochemical
Protocol: The ability to inhibit complement was also tested by assaying for inhibition of complement-mediated red cell lysis (hemolysis). The inhibition of hemolysis was determined as a function of compound concentration. The compounds to be tested were diluted in 0.1M Hepes buffer (0.15N NaCl, pH 7.4), and 50 μl were added to each well of a V-bottom microtiter plate. Human serum, used as the complement source, was diluted 1 to 500 in Hepes buffer, and 50 μl were added to each well. Next, commercially available sheep erythrocytes with anti-sheep antibody (Diamedix Cat. No. 789-001) were used as received and added at 100 μl/well to initiate the complement pathway leading to hemolysis. The plate was incubated for 60 minutes at 37° C. and then centrifuged at 500×g for 10 minutes. The supernatants were removed and placed in a flat-bottom microtiter plate. The extent of hemolysis was measured as a function of the sample absorbance at 410 nm. The maximal absorbance (corresponding to maximal hemolysis), Amax, was obtained from the absorbance value of an erythrocyte sample containing only human serum, AS, less the absorbance of a sample containing only the red cells, A0. Thus, Amax =AS -A0. The difference between the absorbance of an erythrocyte sample containing both human serum and inhibitive compound, and the absorbance of a cell sample containing inhibitive compound only, was defined as Asample. The inhibition, IH, was expressed as the fraction (Amax -Asample)/Amax, and IH50 was defined as the concentration of inhibitive compound required to produce a value of IH=1/2.
The 4 substituted spirobenzofuran compounds of example 7 and the disubstituted spirobenzofuran compounds of example 8 were tested for their capacity to inhibit complement-mediated lysis of sheep red blood cells (SRBC) as described in Section 6.6.2 supra with the modification that the human serum used as the complement source was diluted to 1 to 100 in Hepes buffer, instead of […]. The results of the hemolysis assays are shown in FIG. 8 and Tables XI and XII.

[1] = system: human peripheral blood lymphocytes (PBL); assay: Inhibition of proliferation of peripheral blood lymphocytes, 3H-thymidine incorporation; type: cell-based; details: Lymphocyte, Table IX, 72 h
Protocol: The proliferation of human peripheral blood lymphocytes (PBL) in response to phytohemagglutinin (PHA, Well-come) or anti-CD3 monoclonal antibody (OKT-3, Ortho) was assessed by the incorporation of ^3 H-thymidine. Compound 11a was diluted in culture media to the desired concentrations, human PBL were added to a final concentration of 10^6 cells/ml, and then either PHA (Wellcome) or anti-CD3 (OKT3, Ortho) antibody (final concentration, […]) was added to initiate proliferation. The final volume per sample was 100 μl. The cells were incubated for 72 hours after stimulation, pulsed with 1 μCi ^3 H-thymidine per sample for 4 hours, harvested, and counted in a scintillation counter. […] Because cell viability was unaffected by the presence of 11a (see supra), the inhibition apparently was not due to cytotoxic effects.

[2] = Table VII, human serum, read-out: IHO50
[3] = PHA stimulation, read-out: IP50 PHA-stimulated PBL
[4] = anti-CD3 (OKT-3) stimulation, read-out: IP50 OKT-3-stimulated PBL
[5] = Table XII, human serum diluted 1 to 100, read-out: IH50 Mean
[6] = Table XI, human serum diluted 1 to 100, read-out: IH50 Mean

Structure (SMILES) | IC50 (human complement; [2]) | IC50 (human complement; [5]) | other results
CC1=CCC(C2(C)Cc3c(O)ccc(C(=O)O)c3O2)CC1 (single isomer, unassigned; (-)) [(-)-23a] | 2400 µM |  | IC50 [1, 3]: 2800 µM; IC50 [1, 4]: 2000 µM
O=C(O)c1ccc(O)c2c1OC1(CCCCC1)C2 [Compound 14a] | 3000 µM |  | 
COc1cc(C(=O)O)cc(O)c1CC1=CCCCC1 [Compound 15a] | 820 µM |  | IC50 [1, 3]: 700 µM; IC50 [1, 4]: 400 µM
COc1cc(C(=O)O)cc2c1CC1(CCCCC1)O2 [Compound 30a] | 530 µM |  | 
O=C(O)c1cc(O)c2c(c1)OC1(CCCCC1)C2 [Compound 31a] | 1450 µM | 1450 µM | 
CCOc1cc(C(=O)O)cc2c1CC1(CCCCC1)O2 [Compound 44b, 6-CARBOXYLATE-4-ETHOXY-SPIRO [BENZOFURAN-2(3H)-CYCLOHEXANE] SODIUM SALT] |  | 580 µM | 
O=C(O)c1cc(OCc2ccccc2)c2c(c1)OC1(CCCCC1)C2 [Compound 55a, 4-BENZYLOXY-6-CARBOXYLSPIRO[BENZOFURAN-2(3H)-CYCLOHEXANE]] |  | 2530 µM | 
CCCCOc1cc(C(=O)O)cc2c1CC1(CCCCC1)O2 [Compound 55b, 4-N-BUTYLOXY-6-CARBOXYLSPIRO[BENZOFURAN-2(3H)-CYCLOHEXANE]] |  | 430 µM | 
O=C(O)c1cc(Oc2ccccc2)c2c(c1)OC1(CCCCC1)C2 [Compound 55c, 6-CARBOXYL-4-PHENOXYSPIRO[BENZOFURAN-2(3H)-CYCLOHEXANE]] |  | 280 µM | effectiveness in inhibiting complement-mediated hemolysis compared with K76COOH (human complement): more effective
O=C(O)c1cc(OCCO)c2c(c1)OC1(CCCCC1)C2 [Compound 55d, 6-CARBOXYL-4-(2'-HYDROXYETHYLOXYSPIRO[BENZOFURAN-2(3H)-CYCLOHEXANE]] |  | > 2800 µM | 
O=C(O)c1cc(Oc2ccc([N+](=O)[O-])cc2)c2c(c1)OC1(CCCCC1)C2 [Compound 55e, 6-CARBOXYL-4-P-NITROPHENOXYSPIRO [BENZOFURAN-2(3H)-CYCLOHEXANE]] |  | 305 µM | effectiveness in inhibiting complement-mediated hemolysis compared with K76COOH (human complement): more effective
O=C(O)c1ccc2c(c1)OC1(CCCCC1)C2 [Compound 55g, 6-CARBOXYLSPIRO[BENZOFURAN-2(3H)-CYCLOHEXANE]] |  | 2320 µM | 
Nc1ccc(Oc2cc(C(=O)O)cc3c2CC2(CCCCC2)O3)cc1 [Compound 55h, 4p-aminophenoxy-carboxyspiro[benzofuran2(3H)-cyclohexane] |  | 320 µM | effectiveness in inhibiting complement-mediated hemolysis compared with K76COOH (human complement): more effective
O=C(O)c1ccc(Oc2cc(C(=O)O)cc3c2CC2(CCCCC2)O3)cc1 [Compound 55i, 6-CARBOXYL-4-P-CARBOXYLPHENOXYSPIRO[BENZOFURAN-2(3H)-CYCLOHEXANE]] |  | 1450 µM | 
COc1cc(C=O)c(C(=O)O)c2c1CC1(CCCCC1)O2 [Compound 62, 7-CARBOXY-6-FORMYL-4-METHOXY PIRO[BENXOFURAN-2 (DH)-CYCLOHEXANE] |  |  | IC50 (human complement; [6]): 1670 µM
COc1cc(C(=O)O)c(C(=O)O)c2c1CC1(CCCCC1)O2 [Compound 66, 6,7-DICARBOXYL-4-METHOXYSPIRO [BENZOFURAN-2(3H)-CYCLOHEXANE]] |  |  | IC50 (human complement; [6]): 800 µM
